Source: article PMC3908613 (Bioscience Reports, 2014)

Tests used:
[1] = system: BMDC; test: Cytokine production by LPS-stimulated BMDC (ELISA); assay type: cell-based, C57BL/6 mice; details: LPS 50 ng/ml, 18 h; for production of TNFα, IL6 and IL10: in the presence of both PD184352 (2 μM) and BIRB0796 (0.1 μM)
Protocol: DCs were generated from the bone marrow or the spleen of C57BL/6 mice as previously described. Briefly, bone marrow cells were cultured for 7 days at 37°C, 5% (v/v) CO2 in complete RPMI medium supplemented with 10 ng/ml recombinant granulocyte-macrophage colony-stimulating factor (GM-CSF; Peprotech). Spleen cells were cultured for 14 days at 37°C, 5% CO2 in complete RPMI containing 10 ng/ml GM-CSF and 1 ng/ml TGFβ (transforming growth factor-β; R&D Systems). NIH3T3 cells (European Cell Culture Collection) were cultured in DMEM (Dulbecco's modified Eagle's medium) supplemented with glutamine, penicillin, streptomycin and 10% (v/v) calf serum (Invitrogen). […] The amounts of TNFα (tumour necrosis factor α), IL6 (interleukin 6) and IL10 in the supernatant were measured using ELISA kits specific for each cytokine (TNFα, IL6; Peprotech, IL10; R&D Systems).

[2] = system: p38; test: Desthiobiotin-ATP probe capture on streptavidin beads, Western blot; assay type: binding, C57BL/6 mice; details: 10 μM inhibitor, DC lysate
Protocol: (§1) SDC were cultured for at least 14 days in RPMI (without arginine and lysine, custom-made by Biosera) containing 10% dialysed FCS (Hyclone) supplemented with 84 mg/l of L-arginine (Sigma) and 40 mg/l L-lysine (Sigma) for the 'light' medium or 84 mg/l of […] or ^13C10 and 40 mg/l […] (Cambridge Isotope Laboratory) for the 'heavy' medium. Equal numbers (2×10^7) of 'light' or 'heavy' labelled SDCs were incubated in RPMI containing 0.5% FCS for 3 h in 15 cm dishes. The cells were lysed in the lysis buffer provided in the kit (Pierce). […] Labelling with the desthiobiotin ATP probe, and precipitation with streptavidin beads were performed according to the manufacturer's instructions (Pierce kinase enrichment kit or ActivXTM).

[3] = target: T1, Erk1/2 (Mus musculus, UniProt P63085); test: as above; assay type: binding, C57BL/6 mice; details: 10 μM inhibitor, DC lysate
T1 construct: recovered on streptavidin beads following desthiobiotin-ATP labelling of DC lysates including Rsk2, Erk1/2 and p38; endogenous in cells; host or cells: mouse spleen-derived dendritic cells (SDC), lysate
Protocol: as §1

[4] = system: panel of more than 200 kinases; design: method as in PMID 22056746; details: cited from earlier work
[5] = system: BMDC; test: Immunoblot of phosphorylated signalling proteins in stimulated BMDC; assay type: cell-based, C57BL/6 mice; details: 30 min
Protocol: BMDC (1.5×10^6 cells) were incubated in 6-well plates in RPMI supplemented with 0.3% FCS for 5 h at 37°C. […] NIH3T3 cells (2×10^4) were plated in 6-well plates for 48 h at 37°C. The cells were deprived of serum for 8 h in DMEM supplemented with 2 mg/ml BSA (Sigma) and then stimulated with 100 ng/ml EGF (epidermal growth factor; Peprotech) for 5 min at 37°C.
Cells were washed in cold PBS, lysed on ice for 10 min in lysis buffer (1% Triton X-100 containing 50 mM Tris–HCl (pH 7.5), 150 mM NaCl, 1 mM EGTA, 1 mM EDTA, 10 mM NaF, 1 mM sodium orthovanadate and 5 mM sodium pyrophosphate and protease inhibitors (Roche)) and centrifuged for 10 min at 20000 g at 4°C.
BMDC (5×10^6 cells) were stimulated as described above. Lysates were pre-cleared with protein G Sepharose beads (Roche) for 30 min at 4°C. Paxillin was immunoprecipitated with 2 μg of anti-paxillin (Millipore) or with anti-IgG antibodies (Santa Cruz Biotechnology) for 1 h at 4°C and then incubated with 15 μl protein G Sepharose beads for 1 h at 4°C. Beads were washed four times with lysis buffer and paxillin was eluted with NuPage sample buffer (Invitrogen). The immunoprecipitated proteins were separated by electrophoresis on a 10% (w/v) NuPage gel and transferred onto a nitrocellulose membrane. The membrane was probed with anti-phospho Ser250-paxilin (kind gift of Luc Sabourin, McMaster University, Canada) or anti-paxillin antibodies.

[6] = system: BMDC; test: FITC-dextran uptake (macropinocytosis) by BMDC; assay type: cell-based, C57BL/6 mice; details: LPS 50 ng/ml, FITC-dextran 1 mg/ml, increasing concentrations
Protocol: DCs were generated from the bone marrow or the spleen of C57BL/6 mice as previously described. Briefly, bone marrow cells were cultured for 7 days at 37°C, 5% (v/v) CO2 in complete RPMI medium supplemented with 10 ng/ml recombinant granulocyte–macrophage colony-stimulating factor (GM-CSF; Peprotech). Spleen cells were cultured for 14 days at 37°C, 5% CO2 in complete RPMI containing 10 ng/ml GM-CSF and 1 ng/ml TGFβ (transforming growth factor-β; R&D Systems). NIH3T3 cells (European Cell Culture Collection) were cultured in DMEM (Dulbecco's modified Eagle's medium) supplemented with glutamine, penicillin, streptomycin and 10% (v/v) calf serum (Invitrogen).
FITC-dextran uptake was measured as described. […] In some experiments, cells were pre-treated with 1 μM Akt-i (Merck) for 30 min. Cells were left unstimulated or were stimulated with 50 ng/ml LPS for 20 min at 37°C followed by the addition of 1 mg/ml FITC dextran (Invitrogen) for 10 min at 37°C. Cells were washed four times at 4°C in PBS supplemented with 2% (v/v) FCS (foetal calf serum) and then stained with APC (allophycocyanin)-labelled anti-CD11c antibody (BD biosciences). FITC dextran uptake was measured on an FACS Calibur (BD biosciences).

[7] = target: T2, PLK1 (Mus musculus, UniProt Q07832); test: Desthiobiotin-ATP probe capture on streptavidin beads, Western blot; assay type: binding, C57BL/6 mice; details: 10 μM inhibitor, DC lysate
T2 construct: endogenous in cells; host or cells: mouse spleen-derived dendritic cells (SDC), lysate
Protocol: SDC were cultured for at least 14 days in RPMI (without arginine and lysine, custom-made by Biosera) containing 10% dialysed FCS (Hyclone) supplemented with 84 mg/l of L-arginine (Sigma) and 40 mg/l L-lysine (Sigma) for the ‘light’ medium or 84 mg/l of L-arginine ^13C6 or ^13C10 and 40 mg/l L-lysine ^13C6 (Cambridge Isotope Laboratory) for the ‘heavy’ medium. Equal numbers (2×10^7) of ‘light’ or ‘heavy’ labelled SDCs were incubated in RPMI containing 0.5% FCS for 3 h in 15 cm dishes. The cells were lysed in the lysis buffer provided in the kit (Pierce). […] Labelling with the desthiobiotin ATP probe, and precipitation with streptavidin beads were performed according to the manufacturer's instructions (Pierce kinase enrichment kit or ActivX™). Equal amount of streptavidin precipitates were separated by electrophoresis as described above and probed with antibodies against Rsk2, Lok (Bethyl), Slk (Bethyl), PLK1 (Calbiochem), p38, Erk2 and Mst1 (from Cell Signaling).

[8] = system: DC; test: Actin cytoskeleton organisation in DC (confocal microscopy); assay type: cell-based, C57BL/6 mice; details: 4 μM D1870 or 2 μM BIX, 1h30 at 37°C
Protocol: 2 μMBIXfor1h30at37◦ C. Cells were ﬁxed in 4 % (v/v) paraformalde-hyde for 15 min, permeabilized with 0.1 % Triton for 5 min and stained with phalloidin-Alexa 555 (Invitrogen) and anti-vinculin antibody (Sigma) followed by goat anti-mouse Alexa 488 antibody (invitrogen). Cells were analysed on a Zeiss700 confocal microscope. V inculin (green) and phal-loidin (red). Error bar 10 μm. Images are representative of three inde- […]
© 2014 The Author(s) This is an Open Access ar ticle distributed under the terms of the Creative Commons Attribution Licence (CC-BY) (http://creativecommons.org/licenses/by/3.0/)c which permits unrestricted use, distribution and reproduction in any medium, provided the original work is properly cited.
(1 picture or pasted object on this page, not shown here)

[9] = system: RSK; design: method as in PMID 22056746; details: read-out: in vitro IC50 RSK; cited from earlier work
[10] = increasing concentrations of inhibitor

T1 sequence (P63085 2-358): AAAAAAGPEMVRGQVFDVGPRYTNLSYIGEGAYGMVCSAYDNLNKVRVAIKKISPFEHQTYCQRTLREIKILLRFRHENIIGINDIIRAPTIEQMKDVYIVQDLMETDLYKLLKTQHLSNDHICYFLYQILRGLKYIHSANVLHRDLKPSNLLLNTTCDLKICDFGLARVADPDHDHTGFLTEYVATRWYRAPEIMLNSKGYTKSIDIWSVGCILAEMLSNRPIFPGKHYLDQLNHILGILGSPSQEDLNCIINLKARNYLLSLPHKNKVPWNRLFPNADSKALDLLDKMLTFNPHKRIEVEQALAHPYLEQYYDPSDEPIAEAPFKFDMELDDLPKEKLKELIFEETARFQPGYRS
T2 sequence (Q07832 whole entry): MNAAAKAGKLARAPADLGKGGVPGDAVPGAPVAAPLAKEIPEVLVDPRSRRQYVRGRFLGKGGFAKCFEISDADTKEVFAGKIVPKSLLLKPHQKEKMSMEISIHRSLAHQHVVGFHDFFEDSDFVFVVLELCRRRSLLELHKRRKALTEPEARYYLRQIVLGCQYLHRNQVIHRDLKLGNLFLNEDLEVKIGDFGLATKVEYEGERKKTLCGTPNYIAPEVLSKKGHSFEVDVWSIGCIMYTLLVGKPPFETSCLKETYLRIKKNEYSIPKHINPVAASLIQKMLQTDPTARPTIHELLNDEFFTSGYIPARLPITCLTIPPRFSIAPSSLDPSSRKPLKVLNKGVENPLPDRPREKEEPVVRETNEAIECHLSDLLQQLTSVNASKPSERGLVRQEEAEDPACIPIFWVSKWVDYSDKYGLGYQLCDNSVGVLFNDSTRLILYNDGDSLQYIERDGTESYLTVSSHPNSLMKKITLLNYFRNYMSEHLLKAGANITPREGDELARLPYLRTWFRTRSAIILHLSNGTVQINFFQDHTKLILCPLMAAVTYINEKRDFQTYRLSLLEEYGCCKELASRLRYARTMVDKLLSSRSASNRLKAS

Cc1ccc(-n2nc(C(C)(C)C)cc2NC(=O)Nc2ccc(OCCN3CCOCC3)c3ccccc23)cc1 [BIRB0796]
production of TNFα, IL6 and IL10 [1]: blocked

C[C@@H]1CCNC(=O)c2cc3ccc(C(=O)Nc4nc5ccccc5n4CCCN(C)C)cc3n21 [BIX, BIX02565]
capture of p38 on streptavidin beads [2]: not Erk1/2 or p38, was blocked
capture of Erk1/2 on streptavidin beads [3]: not Erk1/2 or p38, was blocked
Higher levels of BIX at which a few other kinases were affected [4]: ~ 20 fold
Erk1/2, p38 or JNK1/2 phosphorylation ([5]; LPS 50 ng/ml): Neither inhibitor had any effect
GSK3α/β phosphorylation ([5]; LPS 50 ng/ml): blocked
PKB phosphorylation at Ser473 and Thr308 ([5]; LPS 50 ng/ml): increased
Phosphorylation of MSK1 and MK2 ([5]; LPS 50 ng/ml): not affected
phosphorylation of IκBα ([5]; LPS 50 ng/ml): neither D1870 nor BIX affected
phosphorylation of paxillin on Ser250 ([5]; LPS, paxillin immunoprecipitated): little effect
Block of TLR stimulated macropinocytosis [6]: ~ 20%
Recovery of PLK1 on streptavidin beads [7]: not affected
IL6 secretion [1, 10]: only partially blocked
IL10 secretion [1, 10]: only partially blocked
TNFα production [1, 10]: partially blocked
morphological changes in resting DC (cell spreading, focal adhesion, loss of podosomes) [8]: not observed
IC50 [9]: 1 to 2 nM

O=C(NOCC1CC1)c1ccc(F)c(F)c1Nc1ccc(I)cc1Cl [PD184352]
production of TNFα, IL6 and IL10 [1]: blocked
